What was measured:
[1] = test system: AhR-GUS and AhRV-GUS transformed tobacco plant (mouse AhR/AhRV, Arnt, XRE-GUS); test: GUS activity in transformed tobacco plants (AhR-GUS / AhRV-GUS) treated with AhR-ligand; type: in vivo, Nicotiana tabacum cv. Sumsun N N; conditions: for enhancement of the GUS activity in the presence of AhR-ligands: medium with 25 μM 20-MC, 25 μM β-NF, 50 μM indigo, stem and leaf soluble protein, FIG. 10
Source text: A AhR-ligand specific gene expression system for plants was constructed. It was constructed by introducing a AhR, Arnt and XRE to a plant. From a liver cDNA library prepared from C57BL/6 mouse, an AhR cDNA (Schmidt, J. V., et al, 1993) and an Arnt cDNA (Reisz-Porszasz, S., et al, 1994) were cloned. In order to constitutively express both cDNAs in a plant, there were constructed two kinds of plant expression plasmids pSKA2G and pSKAvAtG. The plasmids comprising a tandemly aligned XRE sequence, a transcription factor expression unit (i.e. the first transcription structure) inserted in an expression unit composed of a cauliflower mosaic virus 35S promoter (CaMV35S-P) and a nopaline synthase terminator (Nos-T), and a reporter unit composed of a reporter gene and Nos-T (structures are shown in FIG. 7). The PSKAvAtG contains a chimera AhR (AhRV) in which transcriptional activation domain of AhR is substituted with VP16 transcriptional activation domain (AhRV gene). Using Agrobacterium with each plasmid introduced therein, a tobacco plant (Nicotiana tabacum cv. Sumsun N N) was transformed by a leaf disc method.
The plants which had been introduced with each plant expression plasmid were selected two times by antibiotic kanamycin. Each genomic DNA was extracted from re-differentiated individuals after kanamycin selection, and genomic PCR analysis was performed using primers specific for each of AhR or AhRV, Arnt and GUS.
The plant transformed with either pSKA2G or pSKAvAtG is designated as AhR-GUS or AhRV-GUS plants, respectively. Axillary buds were removed from all transformed plants. […] Then the soluble protein fractions were extracted from stem and leaf parts of the grown buds, and the GUS activities of the fractions were measured. The medium were added with 0.01% Tween 20 and an AhR-ligand (20-MC) or a solvent DMSO solution to a final concentration of 0.1%. Similarly, a axillary bud was cultured for 2 weeks on an MS medium in the presence of various concentrations (8 grades) of AhR-ligand 20 MC. The AhR-ligand dose dependent expression of the reporter was analyzed. In addition, similarly, a axillary bud was cultured for 2 weeks on an MS medium containing 25 μM 20-MC, and tissue-specific expression of a reporter in a plant was analyzed using a GUS staining method. That is, each tissue of a plant was impregnation-treated in a X-Gluc solution (0.1M sodium phosphate buffer, pH 7.0, 1.9 mM X-glucuronide, 0.5 mM K3Fe(CN)6, 0.5 mM K4Fe(CN)6, 0.3% (v/v) Triton X-100, 20% methanol) under reduced pressure, then incubated at 37° C. overnight, and 70% ethanol was added to stop the reaction. Thereafter, decoloration was performed in 70% ethanol, and the tissue was observed under an optical microscope or stereomicroscope.

[2] = test system: LexA operator promoter-LacZ reporter unit in yeast L40 strain expressing XDV/XVD (mouse AhR-ligand binding control region); test: Yeast reporter assay system for XDV/XVD (LacZ activity); type: cell-based; conditions: yeast introduced with XDV/XVD, FIG. 6
Procedure: Yeasts introduced with various XDV/XVD expression plasmids were pre-cultured overnight in a liquid selective medium containing glucose as a carbon source, cultured for 14 to 16 hours in a liquid selective medium containing an AhR-ligand and galactose(as a carbon source), and the LacZ activity was measured.
By using a reporter gene assay system using a yeast expression system, assessment of performance of XDV/XVD was performed.
An yeast L40 strain having a reporter unit composed of a LexA operator promoter and a β-galactosidase gene (LacZ) in a chromosome [(MATa his3Δ200 trp1-901 leu2-3112 ade2 LYS2:: (41exAop-HIS3)URA3:: (81exAop-lacZ)GAL4) (Invitrogen, Netherland)) was transformed, and assessed by the LacZ activity dependent on the expression of XDV/XVD and ligand treatment as an index. […]
Various AhR-ligands (dioxins) were dissolved in DMSO (a final concentration of DMSO in a medium was adjusted at 0.1%). […] An absorbance at 415 nm of the supernatant was measured. A LacZ unit was calculated by the following calculation equation:
LacZ unit=absorbance at 415 nm/[absorbance at 600 nm of a diluted cultured yeast solution in which 200 μL of cultured yeast solution was diluted up to 1 mL]×reaction time (min)]×1000

AhR = conditions: cultured mammal cell; cited from earlier work

| SMILES | GUS staining of tissues (X-Gluc) ([1]; 2 weeks on MS medium containing 25 μM 20-MC, leaf and stem, FIG. 12 B) | 20-MC concentration in a medium that can be detected by the transformed plant ([1]; axillary bud cultured 2 weeks on MS medium, 8 grades of 20-MC) | GUS activity dependent on AhR-ligand treatment, line 4 and line 21 of AhRV-GUS plant ([1]; line 4 and line 21 of the AhRV-GUS plant, stronger than GUS under CaMV 35S-P, FIG. 9) | enhancement of the GUS activity in the presence of AhR-ligands [1] | LacZ activity on AhR-ligand treatment, in words [2] | TCDD concentration detectable (AhR) |
| --- | --- | --- | --- | --- | --- | --- |
| Cc1ccc2cc3c(ccc4ccccc43)c3c2c1CC3 [20-MC, 20-methylcholanthrene] | remarkable expression of a GUS reporter gene | 5 nM | very strong enhancement of the GUS activity | remarkable | – | – |
| O=c1cc(-c2ccccc2)oc2ccc3ccccc3c12 [β-NF, β-naphthoflovone] | – | – | – | remarkable | enhancement of the LacZ activity was recognized | – |
| Clc1cc2c(cc1Cl)Oc1cc(Cl)c(Cl)cc1O2 [TCDD, 2,3,7,8-TCDD] | – | – | – | – | – | 0.01 ppb |
